We go through one compound from paper PMC9024597, “The Biological Fate of a Novel Anticancer Drug Candidate TNBG-5602: Metabolic Profile, Interaction with CYP450, and Pharmacokinetics in Rats” (Molecules, 2022).

For assay [1], the system named is five human cancer cell lines. Further details: method as in PMID 35541052. The note with it: cited from earlier work.
Another assay concerns the target T1, CYP3A4 (Homo sapiens, UniProt P08684).
T1 construct: purchased IPHASE
Put plainly: IC50 assessment using recombinant human CYPs (probe testosterone). In kind it is in vitro ADME. The note with it: recombinant CYP 0.025 μM, testosterone 0.05 mg mL^−1, 37 °C, 30 min, n = 3; read-out: IC50 against CYP3A4. The method, then:
(§1) Figure 12 The inhibition curves for TNBG-5602 against cytochrome enzymes (mean ± SD, n = 3). TNBG-5602 (final concentrations of 0, 0.01, 0.1, 1.0, 10.0, and 100 μM) was incubated with recombinant cytochrome P450s (final concentration 0.025 μM) and the specific probe substates (final concentration 0.05 mg mL^−1) with NADPH to initiate the metabolic reaction. The incubations were carried out at 37 °C for 30 min with a total volume of 200 μL. The CYP isoforms tested were 2D6 (dextromethorphan), 2C9 (tolbutamide), and 3A4 (testosterone). […] The IC50 values were calculated using the GraphPad Prism statistical software (Version 8) by nonlinear regression analysis.
(§2) The LC-MS/MS instrument was the same as the system used to determine TNBG-5602. The mobile phase consisted of 0.1% formic acid, aqueous solution (Solvent A), and acetonitrile (Solvent B) at a flow rate of 0.3 mL min^−1. […]
(§3) For IC50 assessment, the inhibition curves were established by nonlinear regression analysis plotting the relative activity (y) versus the logarithm of the TNBG-5602 concentration (x). The inhibition curve and the half-maximal inhibitory concentration of TNBG-5602 against each CYP isoform were analyzed using the GraphPad Prism statistical software (version 8). […]

A further assay concerns liver cancer cells. Further details: method as in PMID 31446646. Particulars: cited from earlier work.
For the next assay, the target named is T2, CYP2C9 (Homo sapiens, UniProt P11712).
T2 construct: purchased IPHASE
Put plainly: IC50 assessment using recombinant human CYPs (probe tolbutamide). The format is in vitro ADME. The note with it: recombinant CYP 0.025 μM, tolbutamide 0.05 mg mL^−1, 37 °C, 30 min, n = 3; read-out: IC50 against CYP2C9. The method, then:
as §1, §2, §3

T2 sequence (P11712 whole entry): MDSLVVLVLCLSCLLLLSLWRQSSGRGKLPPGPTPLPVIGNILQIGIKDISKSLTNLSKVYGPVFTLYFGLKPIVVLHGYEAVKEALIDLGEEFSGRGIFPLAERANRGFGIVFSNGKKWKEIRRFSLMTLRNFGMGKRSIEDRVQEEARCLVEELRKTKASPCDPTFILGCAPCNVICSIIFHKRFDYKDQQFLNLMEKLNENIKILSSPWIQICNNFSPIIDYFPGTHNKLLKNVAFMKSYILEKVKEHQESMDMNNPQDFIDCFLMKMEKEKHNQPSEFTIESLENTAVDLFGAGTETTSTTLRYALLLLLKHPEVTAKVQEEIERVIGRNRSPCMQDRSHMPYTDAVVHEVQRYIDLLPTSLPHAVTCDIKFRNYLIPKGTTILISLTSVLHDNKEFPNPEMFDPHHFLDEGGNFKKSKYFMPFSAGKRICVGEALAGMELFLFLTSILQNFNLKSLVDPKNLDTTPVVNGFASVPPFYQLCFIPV
T1 sequence (P08684 whole entry): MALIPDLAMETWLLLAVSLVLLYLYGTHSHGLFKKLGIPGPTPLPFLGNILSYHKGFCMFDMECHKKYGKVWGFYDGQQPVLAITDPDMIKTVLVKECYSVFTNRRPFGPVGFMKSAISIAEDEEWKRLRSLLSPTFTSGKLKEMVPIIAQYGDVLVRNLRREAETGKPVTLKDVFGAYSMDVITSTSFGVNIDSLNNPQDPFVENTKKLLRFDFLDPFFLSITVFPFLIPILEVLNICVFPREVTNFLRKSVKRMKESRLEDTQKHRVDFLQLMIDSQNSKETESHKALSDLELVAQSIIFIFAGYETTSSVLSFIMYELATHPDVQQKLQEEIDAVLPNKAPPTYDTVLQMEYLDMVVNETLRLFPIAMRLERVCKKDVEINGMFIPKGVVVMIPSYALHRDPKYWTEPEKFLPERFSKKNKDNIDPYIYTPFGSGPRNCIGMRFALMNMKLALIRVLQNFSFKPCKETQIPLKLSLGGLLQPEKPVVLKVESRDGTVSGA

In the case of `CN(C)CCN1CC2c3ccccc3CCN2c2nc3ccccc3nc21` (stereo not shown) [TNBG-5602], the “inhibitory activity against five human cancer cell lines” value in assay [1] is “strong inhibitory activity”. Further, the IC50 at CYP3A4 worked out at 18.7 µM; on CYP2C9, 9.63 µM. The “inhibition of proliferation of liver cancer cells in vitro” value in the assay with liver cancer cells is “effectively inhibited the proliferation”.
